The test system of data set [1] is S. aureus (ATCC 29213). Put plainly: Mouse S. aureus kidney infection model. It counts as in vivo, CD-1 mice. Conditions: after 24 hours. The procedure:
Animals: female CD-1 mice (8-10 weeks of age; 6/group), were obtained from Charles River Laboratories and were housed and maintained in accordance with the Guide to the Care and Use of Experimental Animals. Methicillin-sensitive S. aureus (MSSA) strain ATCC 29213 was obtained from the American Type Culture Collection. To prepare stocks for animal studies S. aureus was plated on Mueller Hinton Agar plates and incubated at 37° C. overnight. 3-4 colonies from the plate were used to inoculate 5 mL Mueller Hinton Broth (MHB) that was incubated for 8 hours at 37° C. with shaking at 300 RPM. The 5 mL 8-hour culture was diluted 20-fold into 100 mL and incubated overnight (12-14 hours). The bacteria were pelleted for 20 minutes at 3000× and washed twice with Phosphate-Buffered Saline (PBS) containing 0.5% Bovine Serum Albumin (BSA). Aliquots (1 mL) containing ˜1×10^10 cfu in PBS/20% Glycerol were frozen and stored at −80° C. until the day of use. Stock titers were confirmed by serial dilution and plating on Mueller Hinton agar plates. Prior to inoculation, bacterial stocks were thawed and washed once with PBS/BSA. The stocks were then diluted with PBS/BSA to a final concentration of 1×10^9 cfu/mL to give an inoculum of approximately 1-2×10^8 cfu per mouse in a volume of 100 uL. […] Injections were given intravenously via the tail vein using a sterile 30 gauge needle. Upon completion of the mouse infections, the bacterial stocks used to challenge the mice were plated and counted to verify the concentration of the inocula. […] Fisher Scientific). During collection and homogenization all of the samples were kept on ice and the homogenizer was washed thoroughly and sterilized between each sample. Homogenates were serially diluted in sterile PBS/BSA and plated on MH agar to determine bacterial counts per pair of kidneys. CD-1 mice (6/group) were challenged IV with S. aureus (ATCC 29213) at 2×10^8 cfu/mouse. […] The 30-minute and 6-hour treatment groups were treated once, while the 24-hour group received a second treatment 10 hours after the first dose. […] Burdens from pairs of kidneys for each mouse and the median for each group of mice were calculated. CD-1 mice (6/group) were challenged IV with S. aureus (ATCC 29213) at 2×10^8 cfu/mouse. After 2 hours a single group of mice (Early Control (EC)) was euthanized and the kidneys harvested, homogenized and plated to quantitate S. aureus burdens. The additional groups of infected mice were treated via oral gavage with Vehicle at 10 ml/kg (10% VitE TPGS; […] After 24 hours the groups of treated mice were euthanized and the kidneys harvested, homogenized and plated to quantitate S. aureus burdens. Burdens from pairs of kidneys for each mouse and the median for each group of mice were summarized. CD-1 mice (8/group) were challenged IV with S. aureus (ATCC 29213) at 2×10^8 cfu/mouse. After 2 hours a single group of mice (Early Control (EC)) was euthanized and the kidneys harvested, homogenized and plated to quantitate S. aureus burdens. The additional groups of infected mice were treated via oral gavage with Vehicle at 10 ml/kg (Water; […] After 24 hours the groups of treated mice were euthanized and the kidneys harvested, homogenized and plated to quantitate S. aureus burdens. Burdens from pairs of kidneys for each mouse and the median for each group of mice were summarized.

Data set [2] is described as follows: Aqueous solubility study. The format is physicochemical. The settings on record: aqueous buffer, thermodynamic from solid; water, pH 4.39, crystalline solid form, 96 hours at room temperature. As to the method: The aqueous solubilities of compound 23 and compound W were determined according to the following procedure.
Preparation of Samples. Aqueous samples of each compound were prepared as follows. Compounds were weighed (20-30 mg compound) in 4 ml clear vials prior to adding water (0.5 mL) and stirring by magnetic stirrer. 1.0N HCl was added to the suspension to adjust the pH to the desired range. After stirring for 96 hours at room temperature, the suspension was filtered through a 0.22 micron filter (Millipore, Ultrafree centrifugal filters, Durapore PVDF 0.22 μm, Cat# UFC30GVNB). The filtrate was collected and the pH measured with a pH meter.
Preparation of Standard Solutions. […]
Solubility Analysis. Aliquots of each sample and each standard solution were analyzed by HPLC analysis (Agilent 1100, injection volume 10 μL, wavelength 271 nm, column XTerra® Phenyl 5 μm, 4.6×50 mm, Part No. 186001144, mobile phase: A: 0.1% TFA in water 0.1% TFA in AcN). […] Standard curves were obtained by plotting the average of the peak area from the HPLC versus the concentrations of the standard solutions (with appropriate corrections of the weights of the standards based on total water content of the solid as determined by elemental analysis). The concentration of each sample was calculated from the peak area of the aqueous sample from the HPLC results and the slope and intercept of the standard curves. […]

The mark [3] stands for this setting: single oral dose 16 (10) mg/kg Compound W.
Setting [4] is: single oral dose 49 (30) mg/kg Compound W.
Where [5] appears, read: single oral dose 99 (60) mg/kg Compound W.
The mark [6] stands for this setting: single oral dose 166 (100) mg/kg Compound W.

Here are results for one compound from patent US8481551B2, “Gyrase and topoisomerase IV inhibitors” (Vertex Pharmaceuticals Incorporated, priority 2011, dated 2013).

As for `CCNC(=O)Nc1nc2cc(-c3cnc(C(C)(C)OP(=O)([O-])[O-])nc3)c(F)c([C@H]3CCCO3)c2[nH]1.[Na+].[Na+]` [Compound W, disodium (R)-2-(5-(2-(3-ethylureido)-6-fluoro-7-(tetrahydrofuran-2-yl)-1H-benzo[d]imidazol-5-yl)pyrimidin-2-yl)propan-2-yl phosphate], the “Median Kidney Burden (Log10 CFU/kidneys)” value in data set [1] (single oral dose 16 (10) mg/kg Compound W (dose equivalent in brackets)) was 3.69 Log10 CFU/kidneys; in data set [1] (setting [4]), 3.22 Log10 CFU/kidneys; in data set [1] (setting [5]) it was 3.32 Log10 CFU/kidneys; in data set [1] (setting [6]) it was 2.94 Log10 CFU/kidneys. Further, the “Log10 Difference vs. Early Control” value in data set [1] (setting [3]) is on record as −0.71; in data set [1] (setting [4]) it was −1.18; in data set [1] (setting [5]), −1.08; in data set [1] (setting [6]) it was −1.46. Also, the “Log10 Difference vs. Late Control” value in data set [1] (setting [3]) is reported as −2.25; in data set [1] (setting [4]) it was −2.72; in data set [1] (setting [5]), −2.62; in data set [1] (setting [6]) it was −3.00. Further, in data set [1] (single oral doses of 16, 49, 99 and 166 mg/kg Compound W), the “reduction of bacterial burdens versus the early control” value is on record as 0.7-1.5 logs. This compound also gave a solubility at 96 h in data set [2] of 250 µg/mL.
